Laboratory results taken from EP3705574A1, “SPLIT LUCIFERASE, AND HIGHLY SENSITIVE VITAMIN D RECEPTOR LIGAND DETECTION METHOD USING SAME” (Public University Corporation Toyama Prefectural University, priority 2017, dated 2019).

Tests used:
[1] = target: T1, LucN-NHPMLMNLLKDN-(GGGGS)×3-LBD-LucC biosensor (split firefly luciferase, LXXLL sequence, hVDR LBD 121-427 aa) (Homo sapiens, UniProt P11473); assay: Luciferase light emission in COS-7 cells expressing single molecular type biosensor; type: cell-based; conditions: 0-1000 nM added, relative light intensity after 90 minutes
T1 construct: expressed in transfected cells; host or cells: COS-7
T1 sequence (P11473 121-427): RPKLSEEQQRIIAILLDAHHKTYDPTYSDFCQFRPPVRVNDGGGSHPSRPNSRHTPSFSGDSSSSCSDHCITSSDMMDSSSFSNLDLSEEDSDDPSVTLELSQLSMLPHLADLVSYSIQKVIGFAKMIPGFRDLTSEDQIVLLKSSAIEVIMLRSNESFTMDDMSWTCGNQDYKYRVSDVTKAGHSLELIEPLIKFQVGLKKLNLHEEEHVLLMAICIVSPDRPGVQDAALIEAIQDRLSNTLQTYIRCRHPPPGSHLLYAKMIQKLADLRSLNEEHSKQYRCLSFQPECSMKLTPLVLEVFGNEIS

[2] = tested on: double molecular type N29+N31 biosensor (6×His LBD(121-427 aa)-SmBiT + 6×His LgBiT-NHPMLMNLLKDN)
Description: Several of the obtained E.coli colony were selected, inoculated into 2 mL of LB liquid culture medium (containing 100 µg/mL of ampicillin), and shaking culture was performed at 37°C and 200 rpm for 12 hours. 2 mL of E.coli solution was succeeded in 500 mL of LB liquid culture medium (containing 100 µg/mL of ampicillin) and cultivated at 37°C to OD600=0.4, and then 1 mM isopropyl-1-thio-β-D-galactopyranoside [IPTG (NACALAI TESQUE, INC.) was added and cultivated at 15°C for 3 hours to express proteins. After cultivation, centrifugal separation was performed at 4°C, 5000×g for 10 minutes to collect bacterial cells. Bacterial bodies were suspended in the solution containing 25 mM Tris-HCl, pH 7.4, 10 mM DTT, and protease cocktails of inhibitor (NACALAI TESQUE, Inc.) and then ultrasonic crushing was performed in ice for 15 sec×7 times. Thereafter, centrifugal separation was performed at 4°C, 20,000×g for 30 minutes, and supernatant was collected to obtain biosensor protein solutions N29, N30, N31 and N32.
Thereafter, 10 µl of light emission substrate solution (Nano-Glo Live Cell Assay System, Promega) was added and measured. Ethanol (EtOH) brought in, which is used as a solvent for VDR ligand, was at a final concentration of 1%. Microplate reader Infinite 200 Pro (TECAN) was used as an instrument for measuring light emission.
After plating double molecular type N29+N31 to 96 well plate, 0-50 nM of 25(OH)D3 was added and incubated for 10 minutes at room temperature.
After plating double molecular type N29+N31 to 96 well plate, 0-10 nM of 25(OH)D3 was added and incubated for 10 minutes at room temperature.
After plating double molecular type N29+N31 to 96 well plate, 0-10000 nM calcitroic acid was added and incubated for 10 minutes at room temperature.

| SMILES | concentration reaching maximal light emission [1] [nM] | Detection limit ([2]; 0-10 nM 25(OH)D3, 10 minutes after light emission substrate solution, in vitro) [pM] | concentration reaching maximal increase of light emission ([2]; 0-50 nM 25(OH)D3, in vitro) | relative change of light emission ([2]; nanoluciferase biosensor protein, 10 min, 1 pM) | concentration required for increasing light emission ([2]; 0-10000 nM calcitroic acid, 10 minutes after light emission substrate solution, in vitro) [nM] | VDR affinity relative to 1α,25(OH)2D3 ([2]; stated with the N29+N31 biosensor evaluation) |
| --- | --- | --- | --- | --- | --- | --- |
| C=C1CC[C@H](O)C/C1=C/C=C1\CCC[C@]2(C)[C@@H]([C@H](C)CCCC(C)(C)O)CC[C@@H]12 [25(OH)D3, 25 hydroxyvitamin D3] | 1000 | 1 | around 50 nM | about 1.5 fold |  |  |
| C=C1/C(=C\C=C2/CCC[C@]3(C)[C@@H]([C@H](C)CC(=O)O)CC[C@@H]23)C[C@@H](O)C[C@@H]1O [calcitroic acid] |  |  |  |  | ≥ 10 | 1/1000 |
